This is an account of results in US5618809A, “Indolocarbazoles from saccharothrix aerocolonigenes copiosa subsp. nov SCC 1951 ATCC 53856” (Schering Corporation, priority 1995, dated 1997).

Structures are written as SMILES.

Experiment [1] deals with PKC (from rats' brains). Particulars: cited from earlier work.
Experiment [2] has as its system SHR and DOC-rats. Particulars: cited from earlier work.
Experiment [3] deals with T1, MLCK (Gallus gallus, UniProt P11799).
T1 construct: Kemptamide as substrate
The experiment is described as follows: MLCK inhibition (native enzyme from chicken gizzard, calmodulin activated, Kemptamide substrate). The class given is biochemical. An excerpt:
(§1) The PKC was partially purified from rat brain and assayed in the presence of its activators: Ca^2+, phosphatidylserine and 1-oleoyl-2-acetylglycerol. Histone III-S was used as phosphate acceptor. The MLCK was native enzyme from chicken gizzard fully activated by calmodulin. Kemptamide was used as phosphate acceptor.

Experiment [4] has as its system PKC. The experiment is described as follows: PKC inhibition (partially purified PKC, Ca2+, phosphatidylserine and 1-oleoyl-2-acetylglycerol, histone III-S substrate). In kind it is biochemical, rat.
Excerpt: as §1

Take `CC12OC(CC1(O)C(=O)O)n1c3ccccc3c3c4c(c5c6ccccc6n2c5c31)CNC4=O` (centres unmarked) [Example K252b]: the “PKC inhibitory potency (in words)” value in experiment [1] is on record as “inhibitory to PKC (from rats' brains) with good potency, in the nanomolar range”.

`COC(=O)[C@@]1(O)C[C@H]2O[C@]1(C)n1c3ccccc3c3c4c(c5c6ccccc6n2c5c31)C(=O)NC4` [Example K-252a]: the “lowering of blood pressure (in words)” value in experiment [2] is “lowers blood pressure in SHR and DOC-rats”. In addition, the “PKC inhibitory potency (in words)” value in experiment [1] is reported as “inhibitory to PKC (from rats' brains) with good potency, in the nanomolar range”. Further, the “potency at MLCK (in words)” value in experiment [3] is reported as “nanomolar potencies”. The “potency at PKC (in words)” value in experiment [4] is “nanomolar potencies”.
